pIC50: −log10 of the molar value.

The target of the assay is T1, BRD4 (Homo sapiens, UniProt O60885).
T1 construct: tandem (BD1 + BD2)
Put plainly: AlphaScreen binding assay with H4 peptide ([…]) K5/[…] Ac, duplicate dose-response (IC50 […]). To be noted: read-out: DATA 2.

As for `O=c1cc(-c2ccc(O)c(-c3c(O)cc(O)c4c(=O)cc(-c5ccc(O)cc5)oc34)c2)oc2cc(O)cc(O)c12` [amentoflavone], the pIC50 is 4.52.
